Data as given in US6858650B1, “Stable salts of novel derivatives of 3,3-diphenylpropylamines” (Schwarz Pharma AG, priority 1999, dated 2005).

What was measured:
[1] = Hygroscopicity of the solid salt; format: physicochemical
[2] = Stability of the solid salt / on storage; format: physicochemical

| hygroscopicity ([1]; crystalline hydrogen fumarate salt) | stability ([2]; crystalline hydrogen fumarate salt, at RT) | hygroscopicity ([1]; anhydrous product crystallised from isobutyrate chloride solution) | stability ([2]; hydrate-containing product from humid solvent with at least one mole equivalent of water) | SMILES |
| --- | --- | --- | --- | --- |
| non-hygroscopic | stable at RT |  |  | CC(C)C(=O)Oc1ccc(CO)cc1C(CCN(C(C)C)C(C)C)c1ccccc1.O=C(O)/C=C/C(=O)O (stereo not drawn) [2a, R-(+)-2-(3-diisopropylamino-1-phenylpropyl)-4-hydroxymethylphenyl-isobutyrate ester hydrogen fumarate] |
|  |  | very hygroscopic | stable | CC(C)C(=O)Oc1ccc(CO)cc1C(CCN(C(C)C)C(C)C)c1ccccc1.Cl (stereo not drawn) [2b, R-(+)-2-(3-diisopropylamino-1-phenylpropyl)-4-hydroxymethylphenyl-isobutyrate ester hydrochloride hydrate] |
